Values belong to the molecule of their own block, whether it stands above or below them.
Legend:
Format in all cases: cell-based
[1] = tested on: MeWo chemoresistant melanoma cancer cells; assay: CellTiter-Blue viability assay, MeWo; settings: Homo sapiens, 96 hr treatment, approximately 5,000 MeWo cells
Procedure: (§1) Examples 18-22 were prepared and tested as follows. Approximately 5,000 A549 cells (University of Texas M.D. Anderson Cancer Center) growing in RPMI 1640 were plated in each 96-well overnight before adding the test compounds for 96 hr of treatment. Final concentrations achieved in the wells were 0, 0.8, 1.6, 3.1, 6.2, 12.5, 25, 50, 100, and 200 μM. All of the test compounds were reconstituted in DMSO just before the treatment. […] After 96 hr, the medium was refreshed. Approximately 10 μL of CellTiter-Blue® (Promega) was added to 100 μL of medium in each well and incubated at 37° C. for >4 hours. The plates were scanned using a SpectraMax M2 model microplate reader to measure the absorbance. CellTiter-Blue contains dark blue resazurin. Viable cells are able to convert non-fluorescent resazurin to its fluorescent product, resorufin. […] Reduction of resazurin to resorufin also involves a shift of the absorbance maximum from 605 nm to 573 nm, so viability can also be estimated using absorbance. Results were normalized to untreated controls to determine the percent reduction in viability. Graphs were generated using GraphPad Prism (GraphPad Software, Inc).
Examples 50-53 were prepared and tested using substantially the same procedure as described in Examples 18-22, except that approximately 5,000 MeWo melanoma cancer cells (University of Texas M.D. Anderson Cancer Center) were used. […]

[2] = tested on: T-24 chemoresistant urinary bladder cancer cells; assay: CellTiter-Blue viability assay, T-24; settings: 96 hr treatment, approximately 5,000 T-24 cells
Procedure: as §1
Examples 46-49 were prepared and tested using substantially the same procedure as described in Examples 18-22, except that approximately 5,000 T-24 urinary bladder cancer cells (American Type Culture Collection) were used. […]

[3] = tested on: SKOV-3 chemoresistant ovarian cancer cells; assay: CellTiter-Blue viability assay, SKOV-3; settings: 96 hr treatment, approximately 5,000 SKOV-3 cells
Procedure: as §1
Examples 34-37 were prepared and tested using substantially the same procedure as described in Examples 18-22, except that approximately 5,000 SKOV-3 ovarian cancer cells (American Type Culture Collection) were used. […]

[4] = tested on: A2780 (ovarian cancer) cell line; assay: Sulforhodamine-B (SRB) microculture colorimetric cytotoxicity assay, A2780; settings: 96 hr treatment, A2780 ovarian cancer cells, read-out: IC50 ± SD, A2780
Procedure: (§2) Drug solutions of CPH-1, CPH-2 and CPH-3 were made in dimethyl sulfoxide (DMSO, Sigma Aldrich) at a concentration of 20 mM, filtered through a Millipore filter, 0.22 μm, before use, and diluted by nutrient medium to various working concentrations. The nutrient medium was RPMI-1640 (PAA Laboratories) supplemented with 10% fetal bovine serum (Biochrom AG) and penicillin/streptomycin (PAA Laboratories). […]
(§3) The cytotoxic activities of CPH-1, CPH-2 and CPH-3 were evaluated using a sulforhodamine-B (SRB, Sigma Aldrich) microculture colorimetric assay, as described in Skehan et al., J. Natl. Cancer I. 82 (1990) 1107-1112, the disclosure of which is incorporated herein by reference in its entirety. […] The percentages of surviving cells relative to untreated controls were determined 96 hr after the beginning of drug exposure. […] After dyeing, the plates were again washed to remove the dye with 1% acetic acid and allowed to air dry overnight, 100 μL of 10 mM Tris base solutions were added to each well of the plate, and absorbance was measured at 570 nm using a 96 well plate reader (Tecan Spectra, Crailsheim, Germany). […]

[5] = tested on: A549 (lung carcinoma) cell line; assay: Sulforhodamine-B (SRB) microculture colorimetric cytotoxicity assay, A549; settings: 96 hr treatment, A549 lung carcinoma cells, read-out: IC50 ± SD, A549
Procedure: as §2, §3

[6] = tested on: A2780 ovarian cancer cells; assay: CellTiter-Blue viability assay, A2780, approximately 2,000 cells (Examples 23-27); settings: 96 hr treatment, approximately 2,000 A2780 cells
Procedure: as §1
Examples 23-27 were prepared and tested using substantially the same procedure as described in Examples 18-22, except that approximately 2,000 A2780 ovarian cancer cells (University of Texas M.D. Anderson Cancer Center) were used. […]

[7] = tested on: A253 (head and neck tumor) cell line; assay: Sulforhodamine-B (SRB) microculture colorimetric cytotoxicity assay, A253; settings: 96 hr treatment, A253 head and neck tumor cells, read-out: IC50 ± SD, A253
Procedure: as §2, §3

[8] = tested on: A549 lung carcinoma cell line; assay: CellTiter-Blue viability assay, A549 (Examples 18-22); settings: 96 hr treatment, approximately 5,000 A549 cells per well
Procedure: as §1

[9] = tested on: NCI-Adr-Res chemoresistant ovarian cancer cells; assay: CellTiter-Blue viability assay, NCI-Adr-Res; settings: Homo sapiens, 96 hr treatment, approximately 5,000 NCI-Adr-Res cells
Procedure: as §1
Examples 42-45 were prepared and tested using substantially the same procedure as described in Examples 18-22, except that approximately 5,000 NCI-Adr-Res ovarian cancer cells (National Cancer Institute) were used. […]

[10] = tested on: Hey-A8 MDR chemoresistant ovarian cancer cells; assay: CellTiter-Blue viability assay, Hey-A8 MDR; settings: HeyA8-MDR, 96 hr treatment, approximately 5,000 Hey-A8 MDR cells
Procedure: as §1
Examples 38-41 were prepared and tested using substantially the same procedure as described in Examples 18-22, except that approximately 5,000 Hey-A8 MDR ovarian cancer cells (University of Texas M.D. Anderson Cancer Center) were used. […]

IC50 [1]: 7.9 µM
SMILES: CN(C)/N=N/c1[nH]cnc1C(N)=O [Dacarbazine, dacarbazine, reference compound]

SMILES: N.N.[Cl][Pt][Cl] [Cisplatin, cisplatin, reference compound]
IC50 [2]: > 200 µM
IC50 [3]: 12.8 µM
IC50 [4]: 0.55 ± 0.03 µM
IC50 [5]: 1.51 ± 0.02 µM
IC50 [6]: 35.4 µM
IC50 [7]: 0.81 ± 0.02 µM
IC50 [8]: 82.7 µM

IC50 [9]: 14.3 µM
SMILES: COc1cccc2c1C(=O)c1c(O)c3c(c(O)c1C2=O)C[C@@](O)(C(=O)CO)C[C@@H]3O[C@H]1C[C@H](N)[C@H](O)[C@H](C)O1 [Doxorubicin, doxorubicin, reference compound]

IC50 [10]: 0.03 µM
SMILES: CC(=O)O[C@H]1C(=O)[C@@]2(C)[C@H]([C@H](OC(=O)c3ccccc3)[C@]3(O)C[C@H](OC(=O)[C@H](O)[C@@H](NC(=O)c4ccccc4)c4ccccc4)C(C)=C1C3(C)C)[C@]1(OC(C)=O)CO[C@@H]1C[C@@H]2O [Paclitaxel, paclitaxel, reference compound]
